The values below come from PMC3552554 (Thrombosis and haemostasis, 2010).

SMILES strings stand for the structures. Non-standard residues stand in square brackets, D forms with d. Residues, ends and D or L forms follow the SMILES beside them. Oic = O=C(O)[C@@H]1C[C@@H]2CCCC[C@@H]2N1; Phe(4-Me) = Cc1ccc(C[C@H](N)C(=O)O)cc1

A word on the Ki: it is the dissociation constant of the complex between target and ligand, obtained from inhibition or displacement. In general, IC50 refers to the concentration that gives 50% inhibition. Low readings indicate greater potency in that assay, high ones weaker potency in that assay. A word on the clearance: it is the rate of elimination divided by the concentration.

The subject of series [1] is PC3-luc tumors. Put plainly: PC3-luc tumor growth in nude mice. The settings on record: oral 3 mg/ml in drinking water. The format is in vivo.
The target of series [2] is thrombin. The settings on record: direct thrombin inhibitor; cited from earlier work.
The subject of series [3] is PC3-luc cells. Put plainly: Matrigel invasion assay, α-thrombin-stimulated. The format is cell-based, human. Conditions: 1 nM α-thrombin overnight, p = 0.02, 3 independent experiments.
Series [4] deals with T1, thrombin (Homo sapiens, UniProt P00734). Put plainly: Plasma thrombin clotting time after oral treatment. The format is in vivo, mouse. The settings on record: 3 mg/ml in drinking water.
Series [5] deals with carotid artery thrombosis. The settings on record: cited from earlier work.
In series [6] the target is T1, thrombin. Conditions: cited from earlier work.
Series [7] deals with PC3 tumor vessels. Put plainly: PECAM. The format is in vivo, nude mice. Conditions: treated tumors, 3 mg/ml in drinking water; untreated 4.6 ± 2.1/hpf, p = 0.04.
The test system of series [8] is human platelets. The settings on record: cited from earlier work.
In series [9] the test system is PC3-luc cells. The format is cell-based, human.
For series [10] the following is noted: cited from earlier work.
The nature of series [11]: Tail bleeding time. In kind it is in vivo, mouse. Conditions: 3 mg/ml in drinking water, 5 days; n = 6; untreated 79±11 sec (n = 5), p = 0.38.
For series [12] the following is noted: 3 mg/ml in drinking water; cited from earlier work.
The conditions of series [13]: administered intravenously; cited from earlier work.

For `Cc1ccc(C[C@H](NC(=O)[C@@H](C)NC(=O)[C@@H]2CCCN2C(=O)[C@@H]2C[C@@H]3CCCC[C@@H]3N2C(=O)[C@H](N)CCCNC(=N)N)C(N)=O)cc1` [FM19, D-Arg-Oic-Pro, D-Ala-Phe(pMe)] (H-[dR][Oic]P[dA][Phe(4-Me)]-NH2; N-terminus and C-terminus assumed), the mean tumor weight in series [1] (5 weeks, 10 tumors, untreated 0.82 ± 0.32 g, p = 0.04) is 0.5 ± 0.31 g. In addition, the “mean tumor growth rate” value in series [1] (day 14 to day 28, bioluminescence normalized to day 7, untreated 0.55 ± 0.35, p = 0.038) stood at 0.26 ± 0.17 fold change/day. Also, in series [2], the Ki is 4.4 ± 2.4 µM. In addition, the “lowest concentration that significantly decreased the number of invading cells” value in [3] is 0.1 µM. For the same compound, the thrombin clotting time in [4] (5 days, n = 6, untreated 16±1 sec, p < 0.003) is 22 ± 1 s. In addition, in series [4] (treated vs untreated), the “increase in the thrombin clotting time” value is reported as 1.4 fold. In [5] (3 mg/ml in drinking water, rose Bengal assay), the “effect on time to carotid artery occlusion” value is given as “does not prolong the mouse bleeding time or delay time to carotid artery occlusion”. Moreover, the “effect on induced arterial thrombosis” value in series [5] (5 mg/ml in drinking water) is on record as “delays induced arterial thrombosis”. Moreover, the “prolongation of the arterial thrombosis time” value in [5] (5 mg/ml steady-state oral) is listed as 2.7 fold. For the same compound, the “prolongation of the plasma thrombin clotting time” value in [6] (3 mg/ml in drinking water, after 5 days) is reported as 1.4 times. The “prolongation of the thrombin clotting time” value in [6] (5 mg/ml steady-state oral) is given as 7.3 fold. Besides, in [7], the “number of large vessels (> 10 microns)” value is 1.4 ± 1.4 /hpf. The “inhibits the threshold of α-thrombin-induced human platelet aggregation” value in series [8] is 8.4 ± 4.7 µM. Besides, the IC50 in series [9] stood at 15 µM. In addition, the “concentration that inhibited α-thrombin-induced calcium mobilization” value in [9] (PC3-luc cells, 1 nM α-thrombin) was 1 to 100 µM.
Take `Cc1ccc(C[C@H](NC(=O)[C@@H](C)NC(=O)[C@@H]2CCCN2C(=O)[C@@H]2C[C@@H]3CCCC[C@@H]3N2C(=O)[C@H](N)CCCN=C(N)N)C(N)=O)cc1` [FM19, D-Arg-Oic-Pro, D-Ala-Phe(pMe)] (H-[dR][Oic]P[dA][Phe(4-Me)]-NH2): the plasma concentration in [10] (5 mg/ml steady-state oral) was 173 ± 16 ng/mL. Besides, the steady-state plasma concentration in [10] (oral 3 mg/ml in the drinking water, after 5 days) was 80 ng/mL. Moreover, the “mean tail bleeding time” value in series [11] worked out at 92 ± 8 s. The “effect on mouse bleeding time” value in [12] is “does not prolong the mouse bleeding time”. In series [13], the clearance was 8.2 ± 5.1 mL/min/kg and the t1/2α is reported as 32.5 ± 2.9 min.
